Laboratory results as given in US20140023611A1 (priority 2010, published 2014).

target: T1, rat NaP2b (SLC34A2) (Rattus norvegicus, UniProt Q9JJ09); assay: Inhibition of NaP2b-mediated Pi (33P) uptake in transfected HEK293 cells, rat NaP2b; assay type: cell-based; details: 33P Pi uptake, 0.1 mM phosphate, value given as pIC50 range
T1 construct: host or cells: HEK293
T1 sequence (Q9JJ09 1-695): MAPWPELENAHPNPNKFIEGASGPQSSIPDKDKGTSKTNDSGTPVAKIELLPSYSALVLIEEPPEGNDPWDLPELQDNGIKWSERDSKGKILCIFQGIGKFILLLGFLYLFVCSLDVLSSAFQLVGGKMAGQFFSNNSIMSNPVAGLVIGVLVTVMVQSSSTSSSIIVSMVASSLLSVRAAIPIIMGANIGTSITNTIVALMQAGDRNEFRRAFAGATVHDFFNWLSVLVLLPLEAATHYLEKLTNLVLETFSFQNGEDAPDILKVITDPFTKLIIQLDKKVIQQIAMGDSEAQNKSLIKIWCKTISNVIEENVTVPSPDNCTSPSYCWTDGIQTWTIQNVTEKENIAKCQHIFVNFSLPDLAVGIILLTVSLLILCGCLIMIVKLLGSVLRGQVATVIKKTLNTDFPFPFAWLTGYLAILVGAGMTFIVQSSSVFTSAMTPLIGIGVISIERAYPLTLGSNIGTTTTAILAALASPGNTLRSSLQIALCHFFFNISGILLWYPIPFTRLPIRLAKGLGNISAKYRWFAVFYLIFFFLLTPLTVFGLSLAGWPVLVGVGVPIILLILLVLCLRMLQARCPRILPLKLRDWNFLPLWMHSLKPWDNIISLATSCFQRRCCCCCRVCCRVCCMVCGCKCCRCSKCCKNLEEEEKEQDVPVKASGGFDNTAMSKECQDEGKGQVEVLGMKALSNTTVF
Procedure, shortened: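 HEK293 cells were transiently transfected with NaP2b cDNA using Lipofectamine and grown near confluence. Compounds were tested at twelve concentrations from 0.1 nM to 30 uM in duplicate, and 33P-phosphate uptake was counted by scintillation after lysis. Results are expressed as pIC50.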

`CCN(CC)c1ccc(NC(=O)c2cccc(C(=O)N(C)CCN(C)CCOCCOCCOCCNC(=O)c3cccnc3)c2)c(-c2cc(C(=O)N[C@H]3CCCc4ccccc43)ccn2)c1` [Example 342, (S)—N^1-(4-(Diethylamino)-2-(4-(1,2,3,4-tetrahydronaphthalen-1-ylcarbamoyl)pyridin-2-yl)phenyl)-N^3-methyl-N^3-(14-methyl-1-oxo-1-(pyridin-3-yl)-5,8,11-trioxa-2,14-diazahexadecan-16-yl)isophthalamide] and `CCN(CC)c1ccc(NC(=O)c2cccc(C(=O)N(C)CCN(C)CCOCCOCCOCCNC(N)=O)c2)c(-c2cc(C(=O)N[C@H]3CCCc4ccccc43)ccn2)c1` [Example 224, (S)—N1-(1-amino-14-methyl-1-oxo-5,8,11-trioxa-2,14-diazahexadecan-16-yl)-N3-(4-(diethylamino)-2-(4-(1,2,3,4-tetrahydronaphthalen-1-ylcarbamoyl)pyridin-2-yl)phenyl)-N1-methylisophthalamide] fall in the same range of IC50: 1 to 7.94 µM for the first, 1 to 7.94 µM for the second.

First: O=C(NCc1cccc(C(F)(F)F)c1)c1ccnc(-c2cc(N3CCCCC3)ccc2NC(=O)c2cccc(CSCCCCO)c2)c1 [Example 8.4]
Second: O=C(NCc1cccc(C(F)(F)F)c1)c1ccnc(-c2cc(N3CCCCC3)ccc2NC(=O)c2cccc(CSCCS(=O)(=O)O)c2)c1 [Example 8.13]
The IC50 of the first is lower: 1 to 7.94 µM for the first, 10 to 31.6 µM for the second. The first is the more potent here.

Compared with `Cc1ccc(CNc2cc(-c3cc(N4CCCCC4)ccc3NC(=O)c3cccc(CSCCC(=O)O)c3)ncn2)cc1C` [Example 3.4, 3-((3-((2-(6-((3,4-Dimethylbenzyl)amino)pyrimidin-4-yl)-4-(piperidin-1-yl)phenyl)carbamoyl)benzyl)thio)propanoic acid], `Cc1cccc(CNC(=O)c2ccnc(-c3cc(N4CCCCC4)ccc3NC(=O)c3cccc(CSCCC(=O)O)c3)c2)c1` [Example 1.46] is lower in IC50: 10 to 31.6 µM for the first, 1 to 7.94 µM for the second.

`O=C(O)CCSCc1cccc(C(=O)Nc2ccc(N3CCCCC3)cc2-c2cc(C(=O)NCc3ccc4c(c3)CCO4)ccn2)c1` [Example 1.24] and `O=C(O)CCSCc1cccc(C(=O)Nc2ccc(N3CCCCC3)cc2-c2cc(C(=O)NCc3ccc(F)c(C(F)(F)F)c3)ccn2)c1` [Example 1.28] fall in the same range of IC50: 1 to 7.94 µM for the first, 1 to 7.94 µM for the second.

First: CN(CCN1CCOCC1)C(=O)c1cccc(C(=O)Nc2ccc(N3CCSCC3)cc2-c2cc(C(=O)NCc3cccc(C(F)(F)F)c3)ccn2)c1 [Example 118]
Second: CN(CCN1CCOCC1)C(=O)c1cccc(C(=O)Nc2ccc(N3CCN(c4ncccn4)CC3)cc2-c2cc(C(=O)NCc3cccc(C(F)(F)F)c3)ccn2)c1 [Example 96]
The IC50 of the first is lower: 1 to 7.94 µM for the first, 10 to 31.6 µM for the second. The first is the more potent here.

First: Cc1cc(C(=O)Nc2ccc(N3CCCCC3)cc2-c2cc(C(=O)NCc3cccc(C(F)(F)F)c3)ccn2)cc(C(=O)N(C)CCN2CCOCC2)c1 [Example 11.2, N1,5-Dimethyl-N1-(2-morpholinoethyl)-N3-(4-(piperidin-1-yl)-2-(4-((3-(trifluoromethyl)benzyl)carbamoyl)pyridin-2-yl)phenyl)isophthalamide]
Second: COC[C@@H]1CCCN1c1ccc(NC(=O)c2cccc(C(=O)N(C)CCN3CCOCC3)c2)c(-c2cc(C(=O)NCc3cccc(C(F)(F)F)c3)ccn2)c1 [Example 102]
The IC50 of the first is lower: 1 to 7.94 µM for the first, 10 to 31.6 µM for the second. The first is the more potent here.

`Cc1ccc(CNC(=O)c2ccnc(-c3cc(N4CCCCC4)ccc3NC(=O)c3cccc(CSCCC(=O)O)c3)c2)o1` [Example 1.18] and `CN(C)c1ccc(CNC(=O)c2ccnc(-c3cc(N4CCCCC4)ccc3NC(=O)c3cccc(CSCCC(=O)O)c3)c2)cc1` [Example 1.10] fall in the same range of IC50: 1 to 7.94 µM for the first, 1 to 7.94 µM for the second.

`CN(CCOCCOCCOCCC(=O)OC(C)(C)C)CCN(C)C(=O)c1cccc(C(=O)Nc2ccc(N3CCCCC3)cc2-c2cc(C(=O)N[C@H]3CCCc4ccccc43)ccn2)c1` [Example 329, tert-butyl 3-methyl-1-[N-methyl-1-(3-{[4-(piperidin-1-yl)-2-(4-{[(1S)-1,2,3,4-tetrahydronaphthalen-1-yl]carbamoyl}pyridin-2-yl)phenyl]carbamoyl}phenyl)formamido]-6,9,12-trioxa-3-azapentadecan-15-oate] and `CCN(CC)c1ccc(NC(=O)c2cccc(C(=O)N(C)CCN(C)CCOCCOCCOCCNC(C)=O)c2)c(-c2cc(C(=O)N[C@H]3CCCc4ccccc43)ccn2)c1` [Example 341, (S)—N^1-(4-(Diethylamino)-2-(4-(1,2,3,4-tetrahydronaphthalen-1-ylcarbamoyl)pyridin-2-yl)phenyl)-N^3-methyl-N^3-(3-methyl-16-oxo-6,9,12-trioxa-3,15-diazaheptadecyl)isophthalamide] fall in the same range of IC50: 1 to 7.94 µM for the first, 1 to 7.94 µM for the second.

First: CN(CCOCCOCCOCCC(=O)O)C(=O)c1cccc(SCc2cccc(C(=O)Nc3ccc(N4CCCCC4)cc3-c3cc(C(=O)NCc4cccc(C(F)(F)F)c4)ccn3)c2)c1 [Example 135, 3-(2-(2-(2-(N-methyl-3-(3-(4-(piperidin-1-yl)-2-(4-(3-(trifluoromethyl)benzylcarbamoyl)pyridin-2-yl)phenylcarbamoyl)benzylthio)benzamido)ethoxy)ethoxy)ethoxy)propanoic acid]
Second: CC(=O)N1CCCN(C(=O)CCOCCOCCOCCOCCSCc2cccc(C(=O)Nc3ccc(N4CCCCC4)cc3-c3cc(C(=O)NCc4cccc(C(F)(F)F)c4)ccn3)c2)CC1 [Example 153, 2-(2-(3-(17-(4-acetyl-1,4-diazepan-1-yl)-17-oxo-5,8,11,14-tetraoxa-2-thiaheptadecyl)benzamido)-5-(piperidin-1-yl)phenyl)-N-(3-(trifluoromethyl)benzyl)isonicotinamide]
The IC50 of the first is lower: 1 to 7.94 µM for the first, 10 to 31.6 µM for the second.

Compared with `CC(C)CNC(=O)c1ccnc(-c2cc(N3CCCCC3)ccc2NC(=O)c2cccc(CSCCC(=O)O)c2)c1` [Example 1.8], `O=C(O)CCSCc1cccc(C(=O)Nc2ccc(N3CCCCC3)cc2-c2cc(C(=O)NCc3ccc(OC(F)(F)F)cc3)ccn2)c1` [Example 1.44] is lower in IC50: 10 to 31.6 µM for the first, 1 to 7.94 µM for the second.

`COCCN(C)CCN(C)C(=O)c1cccc(C(=O)Nc2ccc(N3CCCCC3)cc2-c2cc(C(=O)NCc3cccc(C(F)(F)F)c3)ccn2)c1` [Example 4.20.2, N1-(2-((2-Methoxyethyl)(methyl)amino)ethyl)-N1-methyl-N3-(4-(piperidin-1-yl)-2-(4-((3-(trifluoromethyl)benzyl)carbamoyl)pyridin-2-yl)phenyl)isophthalamide] and `COCCNC(=O)CCN(C)C(=O)c1cccc(C(=O)Nc2ccc(N3CCCCC3)cc2-c2cc(C(=O)NCc3cccc(C(F)(F)F)c3)ccn2)c1` [Example 4.2, N1-(2-(4-((3-(Trifluoromethyl)benzyl)carbamoyl)pyridin-2-yl)-4-(piperidin-1-yl)phenyl)-N3-(3-(2-methoxyethylamino)-3-oxopropyl)-N3-methylisophthalamide] fall in the same range of IC50: 1 to 7.94 µM for the first, 1 to 7.94 µM for the second.

`O=C(O)CCSCc1cccc(C(=O)Nc2ccc(Cl)cc2-c2cc(NCc3cccc(C(F)(F)F)c3)ncn2)c1` [Example 66, 3-((3-((4-Chloro-2-(6-((3-(trifluoromethyl)benzyl)amino)pyrimidin-4-yl)phenyl)carbamoyl)benzyl)thio)propanoic acid] and `CCN(CC)CCN(C)Cc1cccc(C(=O)Nc2ccc(Cl)cc2-c2cc(NCc3cccc(C(F)(F)F)c3)ncn2)c1` [Example 68, N-(4-Chloro-2-(6-((3-(trifluoromethyl)benzyl)amino)pyrimidin-4-yl)phenyl)-3-(((2-(diethylamino)ethyl)(methyl)amino)methyl)benzamide] fall in the same range of IC50: 10 to 31.6 µM for the first, 10 to 31.6 µM for the second.

Compared with `O=C(O)CCSCc1cccc(C(=O)Nc2ccc(N3CCCCC3)cc2-c2cc(C(=O)NC3CCCc4ccccc43)ccn2)c1` (stereo not drawn) [Example 1.13], `O=C(O)CCSCc1cccc(C(=O)Nc2ccc(N3CCCCC3)cc2-c2cc(Oc3cccc(C(F)(F)F)c3)ncn2)c1` [Example 3.9, 3-((3-((4-(Piperidin-1-yl)-2-(6-(3-(trifluoromethyl)phenoxy)pyrimidin-4-yl)phenyl)carbamoyl)benzyl)thio)propanoic acid] is higher in IC50: 1 to 7.94 µM for the first, 10 to 31.6 µM for the second.

First: CCN(CC)c1ccc(NC(=O)c2cccc(CCCOCCOCCOCCOCCNC(=O)C34CC5CC(CC(C5)C3)C4)c2)c(-c2cc(C(=O)N[C@H]3CCCc4ccccc43)ccn2)c1 [Example 322]
Second: CCN(CC)c1ccc(NC(=O)c2cccc(C(=O)N(C)CCO)c2)c(-c2cc(C(=O)N[C@H]3CCCc4ccccc43)ccn2)c1 [Example 194, (S)—N^1-(4-(diethylamino)-2-(4-((1,2,3,4-tetrahydronaphthalen-1-yl)carbamoyl)pyridin-2-yl)phenyl)-N^3-(2-hydroxyethyl)-N^3-methylisophthalamide]
The IC50 of the first is higher: 1 to 7.94 µM for the first, less than 1 µM for the second. The second is the more potent here.

`CC(C)OCCOc1ccc(NC(=O)c2cccc(C(=O)N(C)CCN3CCOCC3)c2)c(-c2cc(C(=O)NCc3cccc(C(F)(F)F)c3)ccn2)c1` [Example 101] and `CN(CCN1CCOCC1)C(=O)c1cccc(C(=O)Nc2ccc(C(F)(F)F)cc2-c2cc(C(=O)N[C@H]3CCCc4ccccc43)ccn2)c1` [Example 130, (S)—N1-methyl-N1-(2-morpholinoethyl)-N3-(2-(4-(1,2,3,4-tetrahydronaphthalen-1-ylcarbamoyl)pyridin-2-yl)-4-(trifluoromethyl)phenyl)isophthalamide] fall in the same range of IC50: 1 to 7.94 µM for the first, 1 to 7.94 µM for the second.
